Results taken from US20230210866A1 (priority 2020, published 2023).
Where “and” joins values, the source holds several entries; their conditions need not be identical. Identical values can stand only once. Like-named read-outs stand apart in the source and are kept apart here.

Legend:
SARS-CoV-2 virus [1] = experiment: Vero E6 cells infected by SARS-CoV-2, viral infectious titre in culture supernatant; type: cell-based; conditions: monotherapy
Description: The viral production relative to each of the concentrations of molecules has been determined and is shown with respect to the viral production from infected cells or HAE under the same conditions but untreated. The median inhibitory concentrations (IC50) were determined for each treatment condition.
The Vero E6 (ATCC CRL-1586) cells were cultivated in medium DMEM 4.5 g/l of glucose, supplemented by L-glutamine and penicillin/streptomycin and 10% inactivated foetal calf serum, at 37° C., 5% CO2.
In order to produce the infections, the cells were rinsed twice by the medium without serum and were covered by a minimum volume containing a dilution of virus, this dilution being determined from the infectious titre (cf. section on determination of the infectious titre), in order to obtain an adequate multiplicity of infection (MOI). After incubation for one hour in the presence of a minimum volume, the medium was replaced by the medium DMEM 4.5 g/l of glucose, supplemented by L-glutamine and penicillin/streptomycin and 2% inactivated foetal calf serum, and the cells were incubated again at 37° C., 5% CO2.
The determination of the infectious titre was performed using a limited dilution technique, on these Vero E6 cells on a 96-well plate. A volume of 50 µl of series dilutions was deposited in the wells in quadruplicates. The cells were then incubated at 37° C., 5% CO2 and the presence of cytopathic effects is then monitored after 3 days of infection. The infectious dose in tissue culture 50% (DICT50/ ml), i.e. the viral titre required to form an infection in 50% of inoculated cells, was calculated using the technique of Reed and Muench.
Vero E6 cells infected by SARS-CoV-2 (MOI 0.1) were treated at one hour post-infection by increasing concentrations of: • diltiazem (2.8 to 45 µM), • berberine (1.6 to 25 µM), and • remdesivir (0.6 to 10 µM), alone (FIG. 1) and in combination (FIG. 2).
For each of the combined treatments tested, a dose of one of the molecules was fixed and combined with increasing concentrations of the other molecule (same concentration ranges as those used in monotherapy, respectively) and vice versa. The viral infectious titres measured in the culture supernatants of the infected cells (sampled at 48 and 72 hours post-infection) reflect the level of viral replication measured under the various treatment conditions.

SARS-CoV-2 virus [2] = experiment: Reconstituted human respiratory epithelium of nasal origin (MucilAir HAE) infected with SARS-CoV-2, viral genome RT-PCR; type: cell-based; conditions: alone or combined
Description: In order to produce the infections, we have also used a reconstituted human epithelium model (HAE MucilAir, Epithelix), obtained from primary human cells obtained by nasal biopsies, cultivated at the air-liquid interface with a specific culture medium in Costar Transwell inserts (Corning, NY, USA). For the infection experiments, the apical poles were gently washed twice using the medium OptiMEM (Gibco, ThermoFisher Scientific), then infected with 150 µl of virus dilution in medium OptiMEM, with a multiplicity of infection (MOI) of 0.1. After incubation for one hour at 37° C., 5% CO2, the viral suspension was withdrawn.
A quantitative “one-step” PCR was performed using the StepOnePlus Real Time PCR System kit (Applied Biosystems), with the reagent EXPRESS One-Step Superscript qRT-PCR (Invitrogen), in a reaction volume of 20 µl containing 10 µl of supermix Express qPCR (2×), 1 µl of each primer (10 µM), […], 0.4 µl Rox dye (25 µM) and 2 µl of viral RNA.
The following program was used: 15 minutes at 50° C., followed by 40 cycles (15 s 95° C.; 1 min 60° C.).
Reconstituted human respiratory epithelia of nasal origin and cultivated at the air-liquid interface (MucilAir® HAE, Epithelix) were infected with SARS-CoV-2 (MOI 0.1). The basal medium was treated once per day by the following molecules, in simple or combination treatment: • diltiazem (45 or 90 µM), • remdesivir (20 or 40 µM) and • berberine (4 µM) for 48 or 72 hours post-infection.
At various times, the epithelia were harvested and lysed. The total RNA was extracted and the viral genomes were quantified by RT-PCR by normalising the data using the quantification of the product of a cellular gene (GAPDH).

[3] = cited from earlier work
[4] = tested on: SARS-CoV-2 (Wuhan-like strain); experiment: A549-ACE2 cells infected with SARS-CoV-2, viral titre in supernatant over time by RT-PCR; type: cell-based; conditions: A549-ACE2, MOI 10^-1 and 10^-2, single treatment 1 hpi, diltiazem 45 µM or remdesivir 5 µM, 24-96 hpi
Source text: The cells of the cell line A549 are human alveolar basal epithelial cells derived from adenocarcinoma. This cell line is used as a model for the study of lung cancer, but also as target cells for infectious viruses targeting the respiratory tract. These cells were subsequently modified to express the ACE2 receptor, via which the SARS-CoV-2 virus penetrates into the hosts cells. This cell line A549-ACE2 was obtained from Creative Biogene (USA).
The experimental protocol is the following: • Seeding of the A549-ACE2 cells, • 24 hours after infection of the A549-ACE2 cells with a Wuhan-like strain of SARS-CoV-2 (MOI 10^-1 and 10^-2), • 1 hour post infection (pi), the cells are treated with 45 uM diltiazem. • The supernatants are sampled at 24 hours, 48 hours, 72 hours and 96 hours after the infection for a viral quantification by RT-PCR.
The incubation media used are the following: • Seeding medium: DMEM 1 g/L glucose (Glc), 200 mM L-Glutamine (L-Glu), […] penicillin/streptomycin (P/S), 10% foetal calf serum (FCS) • Infection medium: DMEM 1 g/L Glc, 200 mM L-Glu, 104 U P/S, 0% FCS • Treatment medium: DMEM 1 g/L Glc, 200 mM L-Glu, 104 U P/S, 2% FCS

[5] = tested on: SARS-CoV-2 (Wuhan-like strain); experiment: IC50 of diltiazem on SARS-CoV-2 in A549-ACE2 cells, RT-PCR; type: cell-based; conditions: Severe acute respiratory syndrome coronavirus 2; A549-ACE2, MOI 10^-1, treated 1 hpi, 72 hours after infection
Description: The experimental protocol is the following: • Seeding of the A549-ACE2 cells, • 24 hours after infection of A549-ACE2 cells with a Wuhan-like strain of SARS-CoV-2 (MOI 10^-1), • 1 hour post infection (pi), the cells are treated with diltiazem at different concentrations. • The supernatants are sampled at 72 hours after the infection for a viral quantification by RT-PCR.
The IC50 is the median inhibitory concentration, i.e. the quantity of diltiazem necessary to obtain 50% inhibition of the viral replication of the tested SARS-CoV-2 strain.

[6] = Cytotoxicity (CC50) on A549-ACE2 cells, MTS test; type: cell-based; conditions: human, 72 hours of treatment, read-out: CC50 (cytotoxic concentration 50%)
Description: In parallel, the cytotoxicity of diltiazem on A549-ACE2 cells has been verified under the same experimental conditions. For this purpose, the CC50 (cytotoxic concentration 50%), which corresponds to the necessary dose of diltiazem in order to reduce the viability of the cells by half, was measured by monitoring the viability of the A549-ACE2 cells in the presence of various concentrations of diltiazem. The variability was determined by an MTS carried out 72 hours after the start of the treatment.
The MTS test is a colorimetric method: the method is based on the reduction of the compound MTS tetrazolium by viable cells in order to generate a coloured formazan product, enabling the counting of viable cells (coloured) […].

coronavirus SARS-CoV-2 = type: cell-based
[7] = MOI 0.1, 48 hpi, remdesivir 20 µM, diltiazem 90 µM, berberine 4 µM
[8] = Severe acute respiratory syndrome coronavirus 2, Vero C1008, Vero E6, MOI 0.01, 48 hpi, read-out: IC50
[9] = Severe acute respiratory syndrome coronavirus 2, Vero C1008, Vero E6, MOI 0.01, 72 hpi, read-out: IC50
[10] = MOI 0.1, 72 hpi, remdesivir 20 µM, diltiazem 90 µM
[11] = MOI 0.1, 72 hpi, remdesivir 40 µM, diltiazem 45 µM

Row | Compound | IC50 (SARS-CoV-2 virus [1]; Severe acute respiratory syndrome coronavirus 2, Vero C1008, Vero E6, MOI 0.01, 48 hpi) [µM] | IC50 (SARS-CoV-2 virus [1]; Severe acute respiratory syndrome coronavirus 2, Vero C1008, Vero E6, MOI 0.01, 72 hpi) [µM] | IC50 (SARS-CoV-2 virus [1]; Vero E6, MOI 0.01, 72 hpi, read-out: IC50) [µM] | Reduction Relative viral production (%) (SARS-CoV-2 virus [2]; [7]) | Reduction Relative viral production (-log10) (SARS-CoV-2 virus [2]; [7]) | bioavailability [3] | half-life [3] [h] | IC50 (SARS-CoV-2 virus [1]; [8]) [µM] | IC50 (SARS-CoV-2 virus [1]; [9]) [µM] | Reduction Relative viral production (%) (SARS-CoV-2 virus [2]; [10]) | Reduction Relative viral production (-log10) (SARS-CoV-2 virus [2]; [10]) | Reduction Relative viral production (%) (SARS-CoV-2 virus [2]; [11]) | Reduction Relative viral production (-log10) (SARS-CoV-2 virus [2]; [11]) | Inhibition of the viral titre in the supernatant over time (% of untreated) [4] | IC50 [5] [µM] | CC50 at 72 h [6] [µM] | Reduction Relative viral production (-log10) (SARS-CoV-2 virus [2]; MOI 0.1, 48 hpi, remdesivir 20 µM, diltiazem 90 µM, berberine 4 µM, listed as remdesivir) | Antiviral action against coronavirus SARS-CoV-2 (coronavirus SARS-CoV-2)
1 | COc1ccc2cc3[n+](cc2c1OC)CCc1cc2c(cc1-3)OCO2 [Berberine, berberine] | 17.5 | < 5.6 | 5.6 ± 1.7 | 86.37 | 0.86 -log10 and 0.8655 -log10 | low | ~4 | – | – | – | – | – | – | – | – | – | – | –
2 | COc1ccc([C@@H]2Sc3ccccc3N(CCN(C)C)C(=O)[C@@H]2OC(C)=O)cc1.Cl [Diltiazem, diltiazem] | – | – | – | 55.13 | 0.35 -log10 and 0.348 -log10 | – | – | > 45 | > 45 | 29.37 | 0.15 -log10 and 0.151 -log10 | 31.35 | 0.16 -log10 and 0.1634 -log10 | same level of inhibition of the viral titre | 19.7 | 374 | – | –
3 | CCC(CC)COC(=O)[C@H](C)N[P@](=O)(OC[C@H]1O[C@@](C#N)(c2ccc3c(N)ncnn23)[C@H](O)[C@@H]1O)Oc1ccccc1 [Remdesivir, remdesivir] | – | – | – | 100 | more than 7.75 -log10 | – | – | 0.98 | 0.72 | 99.62 | – | 99.5 | 2.3 -log10 and 2.24 -log10 | – | – | – | 7.351 -log10 | –
4 | O=c1cc(-c2ccc(O)cc2)oc2cc(O)cc(O)c12 [apigenin] | – | – | – | – | – | – | – | – | – | – | – | – | – | – | – | – | – | does not have a significant antiviral action
